Legend:
[1] = biological target: T1, β5 subunit of the human constitutive proteasome (CPS) (Homo sapiens, UniProt P28074); assay: β5 inhibition assay, human constitutive proteasome (Suc-LLVY-AMC); type: biochemical; conditions: IC50 class, Suc-LLVY-AMC substrate
T1 construct: purchased Boston Biochem E-360
Method: The enzymatic activity of the β5 subunit of the human constitutive proteasome (CPS) is analyzed. In another assay, which differs from the assay of the human constitutive proteasome only in using the human immunoproteasome (IPS) the enzymatic activity of the β5 subunit of the human immunoproteasome (IPS) is analyzed. […] Inhibition is indicated as IC50 [nM] (“-”=not measured).

[2] = biological target: T2, β5 subunit of the human immunoproteasome (IPS) (Homo sapiens, UniProt P28062); assay: β5 inhibition assay, human immunoproteasome (Suc-LLVY-AMC); type: biochemical; conditions: IC50 class, Suc-LLVY-AMC substrate
T2 construct: purchased Boston Biochem E-370
Method: The enzymatic activity of the β5 subunit of the human constitutive proteasome (CPS) is analyzed. In another assay, which differs from the assay of the human constitutive proteasome only in using the human immunoproteasome (IPS) the enzymatic activity of the β5 subunit of the human immunoproteasome (IPS) is analyzed. Incubation of the enzyme with its fluorogenic substrate Suc-LLVY-AMC leads to liberation of the fluorescent dye AMC which can be measured with a suitable plate reader. • 100 mM HEPES pH7.5 • 50 mM NaCl • 0.02% SDS • 1 mM DTT (add fresh) • Victor X5 (Perkin Elmer) • Label: Umbeliferone (0.1s) • Excitation wavelength: 355 nm • Emission wavelength: 460 nm • 4 μl human cPS or IPS enzyme in assay buffer (final assay concentration 1 nM) or 4 μl assay buffer for negative controls • Compound addition via acoustic dispenser (Echo 520, Labcyte) • Mix and incubate @ RT for 10 min • 4 μl Suc-LLVY-AMC substrate (final assay concentration 22.6 μM) • Mix and incubate @ RT for 4 h (dark) • Stop reaction with 4 μl Bortezomib (final assay concentration 1 μM) • 15 min @ RT • Measure (Excitation 355 nm; Emission 460 nm)

HT-29 cells = assay: CellTiter-Glo luminescent cell viability assay with HT-29 cells (72h incubation); type: cell-based, human; conditions: Homo sapiens, HT-29, HT29 cells, read-out: CTG HT29
Method: Cell Titer Glo Viability Assay with HT-29 Cells (72h Incubation) The CellTiter-Glo Luminescent Cell Viability Assay (Promega) is a homogeneous method of determining the number of viable cells in culture. It is based on quantification of ATP, indicating the presence of metabolically active cells. On day 1 400 HT-29 cells per well are seeded in white 384well plates (Greiner, #781080) in 25 μl cell culture medium (DMEM (PAN-Biotech #P04-03590)+10% FCS+glutamine). After incubation for 24 h at 37° C./5% CO2 compounds or DMSO are added at different concentrations by Echo Liquid Handling Technology. Cells are further incubated in humidified chambers for 72 h at 37° C. and 5% CO2. Cells treated with the compound vehicle DMSO are used as positive controls and cells treated with 10 μM Staurosporine serve as negative controls. At day 5-72h after compound addition—the CellTiter Glo Reagent is prepared according to the instructions of the kit (Promega Inc.): Reagent is mixed 1:1 with cell culture medium. Thereon, mixture and assay plates are equilibrated at room temperature for 20 min. Equal volumes of the reagent-medium-mixture is added to the volume of culture medium present in each well. The plates are mixed at […] for 2 minutes on an orbital shaker. The microplates are then incubated at room temperature for 10 minutes for stabilization of the luminescent signal. Following incubation the luminescence is recorded on a Victor microplate reader (Perkin Elmer) using a 200 ms integration time. The data is then analyzed with Excel using the XLFIT Plugin (dose response Fit 205) for IC50-determination. As quality control the Z′-factor is calculated from 16 positive and negative control values. […] Inhibition is indicated as IC50 [nM] (“-”=not measured).

Structure (SMILES) | IC50 [1] [nM] | IC50 [2] [nM] | IC50 (HT-29 cells) [nM]
Cc1ccc2cc1CNC(=O)[C@H](CCc1ccccc1)NC(=O)[C@@H](NC(=O)C1(c3ccc(N)cc3)CCCC1)CC(=O)N1CCCC(CCO2)C1 (stereo partly drawn) [Compound 305, 1-(4-aminophenyl)-N-((9S,12S)-5^4-methyl-8,11,14-trioxo-9-phenethyl-4-oxa-7,10-diaza-1(3,1)-piperidina-5(1,3)-benzenacyclotetradecaphane-12-yl)cyclopentane-1-carboxamide] | < 100 | < 100 | < 100
Cc1ccc2cc1CNC(=O)[C@H](CCc1ccccc1)NC(=O)[C@@H](NC(=O)Cc1ccc(N)cc1C)CC(=O)N1CCCC(CCO2)C1 (stereo partly drawn) [Compound 304, 2-(4-amino-2-methylphenyl)-N-((9S,12S)-5^4-methyl-8,11,14-trioxo-9-phenethyl-4-oxa-7,10-diaza-1(3,1)-piperidina-5(1,3)-benzenacyclotetradecaphane-12-yl)acetamide] | < 100 | < 100 | < 100
Cc1ccc2cc1CNC(=O)[C@H](CCc1ccccc1)NC(=O)[C@@H](NC(=O)C1(c3ccc(N)cc3)CC1)CC(=O)N1CCCC(CCO2)C1 (stereo partly drawn) [Compound 307, 1-(4-aminophenyl)-N-((9S,12S)-5^4-methyl-8,11,14-trioxo-9-phenethyl-4-oxa-7,10-diaza-1(3,1)-piperidina-5(1,3)-benzenacyclotetradecaphane-12-yl)cyclopropane-1-carboxamide] | < 100 | < 100 | < 100
Cc1ccc2cc1CNC(=O)[C@H](CCc1ccccc1)NC(=O)[C@@H](NC(=O)C1(c3ccc(N)cc3)CCC1)CC(=O)N1CCCC(CCO2)C1 (stereo partly drawn) [Compound 306, 1-(4-aminophenyl)-N-((9S,12S)-5^4-methyl-8,11,14-trioxo-9-phenethyl-4-oxa-7,10-diaza-1(3,1)-piperidina-5(1,3)-benzenacyclotetradecaphane-12-yl)cyclobutane-1-carboxamide] | < 100 | < 100 | < 100
Cc1cc(CC(=O)N[C@H]2CC(=O)N3CCCC(CCOc4ccc(C)c(c4)CNC(=O)[C@H](CCc4ccccc4)NC2=O)C3)ccc1N (stereo partly drawn) [Compound 303, 2-(4-amino-3-methylphenyl)-N-((9S,12S)-5^4-methyl-8,11,14-trioxo-9-phenethyl-4-oxa-7,10-diaza-1(3,1)-piperidina-5(1,3)-benzenacyclotetradecaphane-12-yl)acetamide] | < 100 | < 100 | < 100
Cc1ccc2cc1CNC(=O)[C@H](CCc1ccccc1)NC(=O)[C@@H](NC(=O)Cc1ccc(N)cc1)CC(=O)N1CCC[C@@H](CCO2)C1 [Compound 173, 2-(4-aminophenyl)-N-((13S,9S,12S)-5^4-methyl-8,11,14-trioxo-9-phenethyl-4-oxa-7,10-diaza-1(3,1)-piperidina-5(1,3)-benzenacyclotetradecaphane-12-yl)acetamide] | – | – | 100 to 500
Cc1ccc2cc1CNC(=O)[C@H](CCc1ccccc1)NC(=O)[C@@H](NC(=O)Cc1cccc(Cl)c1)CC(=O)N1CCCC(CCO2)C1 (stereo partly drawn) [Compound 61, 2-(3-chlorophenyl)-N-((9S,12S)-54-methyl-8,11,14-trioxo-9-phenethyl-4-oxa-7,10-diaza-1(3,1)-piperidina-5(1,3)-benzenacyclotetradecaphane-12-yl)acetamide] | – | – | < 100
Cc1ccc2cc1CNC(=O)[C@H](CCc1ccccc1)NC(=O)[C@@H](NC(=O)c1cccnc1)CC(=O)N1CCCC(CCO2)C1 (stereo partly drawn) [Compound 41, N-((9S,12S)-5^4-methyl-8,11,14-trioxo-9-phenethyl-4-oxa-7,10-diaza-1(3,1)-piperidina-5(1,3)-benzenacyclotetradecaphane-12-yl)nicotinamide] | – | – | < 100

Second part, the compound after the results:

IC50 [1] [nM] | IC50 [2] [nM] | IC50 (HT-29 cells) [nM] | Structure (SMILES)
< 100 | < 100 | < 100 | Cc1ccc2cc1CNC(=O)[C@H](CCc1ccccc1)NC(=O)[C@@H](NC(=O)c1cccc3c1CNCC3)CC(=O)N1CCCC(CCO2)C1 (stereo partly drawn) [Compound 316, N-((9S,12S)-5^4-methyl-8,11,14-trioxo-9-phenethyl-4-oxa-7,10-diaza-1(3,1)-piperidina-5(1,3)-benzenacyclotetradecaphane-12-yl)-1,2,3,4-tetrahydroisoquinoline-5-carboxamide]
> 5000 | 500 to 1000 | 100 to 500 | Cc1ccc2cc1CNC(=O)[C@H](CCc1ccccc1)NC(=O)[C@@H](NC(=O)OCc1ccccc1)CC(=O)N1CC(CCO2)Cc2ccccc21 (stereo partly drawn) [Compound 313, benzyl ((9S, 12S)-5^4-methyl-8,11,14-trioxo-9-phenethyl-11,12,13,14-tetrahydro-4-oxa-7,10-diaza-1(3,1)-quinolina-5(1,3)-benzenacyclotetradecaphane-12-yl)carbamate]
< 100 | < 100 | < 100 | Cc1ccc2cc1CNC(=O)[C@H](CCc1ccccc1)NC(=O)[C@@H](NC(=O)c1cccc3cc(N)ncc13)CC(=O)N1CCCC(CCO2)C1 (stereo partly drawn) [Compound 319, 3-amino-N-((9S,12S)-5^4-methyl-8,11,14-trioxo-9-phenethyl-4-oxa-7,10-diaza-1(3,1)-piperidina-5(1,3)-benzenacyclotetradecaphane-12-yl)isoquinoline-8-carboxamide]
< 100 | < 100 | < 100 | Cc1ccc2cc1CNC(=O)[C@H](CCc1ccccc1)NC(=O)[C@@H](NC(=O)C1CCc3cc(N)ccc31)CC(=O)N1CCCC(CCO2)C1 (stereo partly drawn) [Compound 317, 5-amino-N-((9S,12S)-5^4-methyl-8,11,14-trioxo-9-phenethyl-4-oxa-7,10-diaza-1(3,1)-piperidina-5(1,3)-benzenacyclotetradecaphane-12-yl)-2,3-dihydro-1H-indene-1-carboxamide]
> 5000 | 100 to 500 | 100 to 500 | Cc1ccc2cc1CNC(=O)[C@H](CCc1ccccc1)NC(=O)[C@@H](NC(=O)OCc1ccccc1)CC(=O)N(C)CCO2 [Compound 312, benzyl ((8S,11S)-1^4,5-dimethyl-6,9,12-trioxo-11-phenethyl-2-oxa-5,10,13-triaza-1(1,3)-benzenacyclotetradecaphane-8-yl)carbamate]
< 100 | < 100 | < 100 | Cc1ccc2cc1CNC(=O)[C@H](CCc1ccccc1)NC(=O)[C@@H](NC(=O)C(C)(C)c1ccc(N)cc1)CC(=O)N1CCCC(CCO2)C1 (stereo partly drawn) [Compound 308, 2-(4-aminophenyl)-2-methyl-N-((9S,12S)-5^4-methyl-8,11,14-trioxo-9-phenethyl-4-oxa-7,10-diaza-1(3,1)-piperidina-5(1,3)-benzenacyclotetradecaphane-12-yl)propanamide]
< 100 | < 100 | < 100 | Cc1ccc2cc1CNC(=O)[C@H](CCc1ccccc1)NC(=O)[C@@H](NC(=O)Cc1ccc(N)cc1F)CC(=O)N1CCCC(CCO2)C1 (stereo partly drawn) [Compound 318, 2-(4-amino-2-fluorophenyl)-N-((9S,12S)-5^4-methyl-8,11,14-trioxo-9-phenethyl-4-oxa-7,10-diaza-1(3,1)-piperidina-5(1,3)-benzenacyclotetradecaphane-12-yl)acetamide]
– | – | < 100 | CC(=O)N[C@H]1CC(=O)N2CCCC(CCOc3ccc(C)c(c3)CNC(=O)C(CCc3ccccc3)NC1=O)C2 (stereo partly drawn) [Compound 550, N-((12S)-5^4-methyl-8,11,14-trioxo-9-phenethyl-4-oxa-7,10-diaza-1(3,1)-piperidina-5(1,3)-benzenacyclotetradecaphane-12-yl)acetamide]
< 100 | < 100 | < 100 | Cc1ccc2cc1CNC(=O)[C@H](CCc1ccccc1)NC(=O)[C@@H](NC(=O)OCc1ccccc1)CC(=O)N1CC(CCO2)CCC1C (stereo partly drawn) [Compound 315, benzyl ((9S,12S)-1^6,5^4-dimethyl-8,11,14-trioxo-9-phenethyl-4-oxa-7,10-diaza-1(3,1)-piperidina-5(1,3)-benzenacyclotetradecaphane-12-yl)carbamate]

— patent publication US20240415819A1, “MACROCYCLIC COMPOUNDS AS PROTEASOME SUBUNIT BETA TYPE-5 INHIBITORS” (Lead Discovery Center GmbH, priority 2021, published 2024)
